In patent publication US20120225062A1 (priority 2011, published 2012):

Tests used:
[1] = test system: KMS11 (human myeloma cell line); assay: Cell Proliferation Assay (CellTiter-Glo, 3 days); type: cell-based; settings: KMS-11, 72 h, KMS11-luc cells
Outline: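 KMS11 myeloma cells, 2000 per well in IMDM with 10% FBS, exposed to compound for 3 days at 37° C. Viability read by CellTiter-Glo luminescence; EC50 derived.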

[2] = target: Pim 1 (Homo sapiens, UniProt P11309); assay: Pim 1 AlphaScreen assay (high ATP)
Chain of Pim 1 (P11309 whole entry): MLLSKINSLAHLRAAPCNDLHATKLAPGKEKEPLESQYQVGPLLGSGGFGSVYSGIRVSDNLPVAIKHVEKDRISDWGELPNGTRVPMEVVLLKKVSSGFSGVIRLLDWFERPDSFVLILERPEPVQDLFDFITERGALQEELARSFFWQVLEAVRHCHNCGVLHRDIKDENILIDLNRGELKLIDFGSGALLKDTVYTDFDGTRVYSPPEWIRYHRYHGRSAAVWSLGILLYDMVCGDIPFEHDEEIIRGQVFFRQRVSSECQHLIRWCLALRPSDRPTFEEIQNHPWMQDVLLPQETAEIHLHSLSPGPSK

[3] = target: Pim 2 (Homo sapiens, UniProt Q9P1W9); assay: Pim 2 AlphaScreen assay (high ATP)
Chain of Pim 2 (Q9P1W9 whole entry): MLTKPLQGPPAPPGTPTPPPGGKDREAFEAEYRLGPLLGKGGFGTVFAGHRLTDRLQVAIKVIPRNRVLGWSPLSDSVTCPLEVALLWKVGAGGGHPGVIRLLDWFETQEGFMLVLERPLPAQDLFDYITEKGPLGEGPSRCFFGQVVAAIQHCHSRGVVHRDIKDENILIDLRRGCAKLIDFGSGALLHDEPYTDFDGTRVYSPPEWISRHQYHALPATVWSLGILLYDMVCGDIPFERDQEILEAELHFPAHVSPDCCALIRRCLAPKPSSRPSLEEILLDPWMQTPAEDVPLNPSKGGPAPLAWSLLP
Description: (§1) The activity of Pim 1, Pim 2, & Pim 3 is measured using a homogeneous bead based system quantifying the amount of phosphorylated peptide substrate resulting from kinase-catalyzed phosphoryl transfer to a peptide substrate. Compounds to be tested are dissolved in 100% DMSO and directly distributed to a white 384-well plate at 0.25 μl per well. […] This is followed by the addition of 5 μl/well of Pim 1, Pim 2 or Pim 3 kinase in assay buffer (concentrations described below). Final assay concentrations (described below) are in 2.5% DMSO. The reactions are performed for ˜2 hours, then stopped by the addition of 10 μl of 0.75 μg/ml anti-phospho Ser/Thr antibody (Cell Signaling), 10 μg/ml Protein A AlphaScreen beads (Perkin Elmer), and 10 μg/ml streptavidin coated AlphaScreen beads in stop/detection buffer (50 mM EDTA, 95 mM Tris, pH=7.5, 0.01% Tween-20). The stopped reactions are incubated overnight in the dark. The phosphorylated peptide is detected via an oxygen anion initiated chemiluminescence/fluorescence cascade using the Envision plate reader (Perkin Elmer).

[4] = target: Pim 3 (Homo sapiens, UniProt Q86V86); assay: Pim 3 AlphaScreen assay (high ATP)
Description: as §1

EC50 [1] [nM] | IC50 [2] [nM] | IC50 [3] [nM] | IC50 [4] [nM] | Compound
52 | 0.02 | 1.36 | 0.95 | C[C@@H]1C[C@H](N)C[C@H](c2ccncc2NC(=O)c2ccc(F)c(-c3c(F)cc(N4CCOCC4)cc3F)n2)C1 [Example 168, N-(4-((1R,3S,5S)-3-amino-5-methylcyclohexyl)pyridin-3-yl)-6-(2,6-difluoro-4-morpholinophenyl)-5-fluoropicolinamide]
13 | 0.02 | 1.52 | 1 | C[C@@H]1C[C@H](N)C[C@H](c2ccncc2NC(=O)c2ccc(F)c(-c3c(F)cc(CCO)cc3F)n2)C1 [Example 33, N-(4-((1R,3S,5S)-3-amino-5-methylcyclohexyl)pyridin-3-yl)-6-(2,6-difluoro-4-(2-hydroxyethyl)phenyl)-5-fluoropicolinamide]
52 | 0.01 | 1.03 | 0.35 | CC(C)Oc1cc(F)c(-c2nc(C(=O)Nc3cnccc3[C@H]3C[C@@H](N)[C@H](O)[C@@H](C)C3)ccc2F)c(F)c1 [Example 62, N-(4-((1R,3R,4R,5S)-3-amino-4-hydroxy-5-methylcyclohexyl)pyridin-3-yl)-6-(2,6-difluoro-4-isopropoxyphenyl)-5-fluoropicolinamide]
403 | 0.08 | 29.7 | 19.6 | N#CC1(c2cc(F)c(-c3nc(C(=O)Nc4cnccc4[C@@H]4CCC[C@H](N)C4)ccc3F)c(F)c2)CCOCC1 [Example 172, N-(4-((1R,3S)-3-aminocyclohexyl)pyridin-3-yl)-6-(4-(4-cyanotetrahydro-2H-pyran-4-yl)-2,6-difluorophenyl)-5-fluoropicolinamide]
176 | 0.01 | 0.98 | 0.46 | COCCOc1cc(F)c(-c2nc(C(=O)Nc3cnccc3[C@H]3C[C@@H](N)C[C@@H](C(C)C)C3)ccc2F)c(F)c1 [Example 175, N-(4-((1R,3S,5S)-3-amino-5-isopropylcyclohexyl)pyridin-3-yl)-6-(2,6-difluoro-4-(2-methoxyethoxy)phenyl)-5-fluoropicolinamide]
20 | 0.02 | 0.87 | 0.25 | CCc1cc(F)c(-c2nc(C(=O)Nc3cnccc3N3C[C@@H](N)[C@H](O)[C@@H](C)C3)ccc2F)c(F)c1 [Example 235, N-(4-((3R,4R,5S)-3-amino-4-hydroxy-5-methylpiperidin-1-yl)pyridin-3-yl)-6-(4-ethyl-2,6-difluorophenyl)-5-fluoropicolinamide]
84 | 0.08 | 4.16 | 0.24 | C[C@@H]1C[C@H](N)C[C@H](c2ccncc2NC(=O)c2ccc(F)c(-c3c(F)cc(OC4COC4)cc3F)n2)C1 [Example 48, N-(4-((1R,3S,5S)-3-amino-5-methylcyclohexyl)pyridin-3-yl)-6-(2,6-difluoro-4-(oxetan-3-yloxy)phenyl)-5-fluoropicolinamide]
68 | 0.08 | 3.98 | 2.63 | COCc1cc(F)c(-c2nc(C(=O)Nc3cnccc3[C@H]3C[C@@H](N)[C@H](O)[C@@H](C)C3)ccc2F)c(F)c1 [Example 40, N-(4-((1R,3R,4R,5S)-3-amino-4-hydroxy-5-methylcyclohexyl)pyridin-3-yl)-6-(2,6-difluoro-4-(methoxymethyl)phenyl)-5-fluoropicolinamide]
18 | 0.01 | 2.03 | 0.77 | C[C@@H]1C[C@H](N)C[C@H](c2ccncc2NC(=O)c2ccc(F)c(-c3c(F)cc(C4(O)CC4)cc3F)n2)C1 [Example 44, N-(4-((1R,3S,5S)-3-amino-5-methylcyclohexyl)pyridin-3-yl)-6-(2,6-difluoro-4-(1-hydroxycyclopropyl)phenyl)-5-fluoropicolinamide]
